The text below walks through data of patent publication US11273200B2, “Immunotherapy against several tumors including gastrointestinal and gastric cancer” (Immatics Biotechnologies GmbH, priority 2010, dated 2022).

The test system of this experiment is CD8+ T cells. As to the kind of experiment: In vitro immunogenicity of HLA-A*2402 restricted TUMAPs: priming of CD8+ T cells with pMHC/anti-CD28 coated beads (aAPC), multimer staining. Type of experiment: cell-based, human. The conditions noted are these: HLA-A*2402 peptides, healthy donors, three stimulation cycles; for Wells positive/evaluable [%]: at least 48 wells evaluable; for Donors positive/evaluable [%]: at least four donors evaluable. The source says: In order to perform in vitro stimulations by artificial antigen presenting cells (aAPC) loaded with peptide-MHC complex (pMHC) and anti-CD28 antibody, we first isolated CD8 T cells from fresh HLA-A*24 leukapheresis products or from HLA-A*2 buffy coats of healthy donors obtained from the Blood Bank Tuebingen.
CD8 T cells were either directly enriched or PBMCs (peripheral blood mononuclear cells) were isolated first by using standard gradient separation medium (PAA, Colbe, Germany). Isolated CD8 lymphocytes or PBMCs were incubated until use in T-cell medium (TCM) consisting of RPMI-Glutamax (Invitrogen, Karlsruhe, Germany) supplemented with 10% heat inactivated human AB serum (PAN-Biotech, Aidenbach, Germany), 100 U/ml Penicillin/100 μg/ml Streptomycin (Cambrex, Cologne, Germany), 1 mM sodium pyruvate (CC Pro, Oberdorla, Germany), 20 μg/ml Gentamycin (Cambrex). […] Isolation of CD8+ lymphocytes was performed by positive selection using CD8 MicroBeads (Miltenyi Biotec, Bergisch-Gladbach, Germany).
800.000 beads/200 μl were coated in 96-well plates in the presence of 600 ng biotin-anti-CD28 plus 200 ng relevant biotin-pMHC (high density beads). […] Half of the medium was then exchanged by fresh TCM supplemented with 80 U/ml IL-2 and incubation was continued for 3-4 days at 37° C. This stimulation cycle was performed for a total of three times.
In vitro priming of specific multimer+ CD8+ lymphocytes was detected by appropriate gating and by comparing to negative control stimulations.

Turning to “SYNVTSVLF (listed as Homo sapiens) [LCN2-001]”, the “Wells positive/evaluable [%]” value was found to be 1% and the “Donors positive/evaluable [%]” value is listed as 17%.

With “NYEETFPHI (listed as Homo sapiens) [MUC6-001]”, the “Wells positive/evaluable [%]” value is 22% and the “Donors positive/evaluable [%]” value stood at 83%.

In the case of “YYNAAGFNKL (listed as Homo sapiens) [UQCRB-001]”, the “Wells positive/evaluable [%]” value came to 24% and the “Donors positive/evaluable [%]” value was determined as 83%.

For “VYISSLALL (listed as Homo sapiens) [PSMD14-001]”, the “Wells positive/evaluable [%]” value was found to be 1% and the “Donors positive/evaluable [%]” value stood at 17%.

In the case of “IYAPKLQEF (listed as Homo sapiens) [CCNE2-001]”, the “Wells positive/evaluable [%]” value came out at 0% and the “Donors positive/evaluable [%]” value was 0%.

As for “IYLEVIHNL (listed as Homo sapiens) [DNAJC10-001]”, the “Wells positive/evaluable [%]” value worked out at 15% and the “Donors positive/evaluable [%]” value is 50%.

Regarding “LYLENIDEF (listed as Homo sapiens) [POLD3-001]”, the “Wells positive/evaluable [%]” value worked out at 7% and the “Donors positive/evaluable [%]” value turned out to be 67%.

For “AYLVYTDRL (listed as Homo sapiens) [PPAP2C-001]”, the “Wells positive/evaluable [%]” value stood at 29% and the “Donors positive/evaluable [%]” value stood at 83%.

Regarding “VYTTSYQQI (listed as Homo sapiens) [NFYB-001]”, the “Wells positive/evaluable [%]” value was found to be 7% and the “Donors positive/evaluable [%]” value amounted to 50%.

Consider “VYIEKNDKL (listed as Homo sapiens) [ERBB3-001]”, for which the “Donors positive/evaluable [%]” value worked out at 83%.

For “SYIDVLPEF (listed as Homo sapiens) [MET-006]”, the “Wells positive/evaluable [%]” value was determined as 21% and the “Donors positive/evaluable [%]” value is 67%.

As to “SYNPLWLRI (listed as Homo sapiens) [ASPM-002]”, the “Wells positive/evaluable [%]” value worked out at 32% and the “Donors positive/evaluable [%]” value was found to be 67%.

As for “SYATLLHVL (listed as Homo sapiens) [GPR39-001]”, the “Wells positive/evaluable [%]” value was 6% and the “Donors positive/evaluable [%]” value is recorded as 50%.

Take “SYQKVIELF (listed as Homo sapiens) [PBK-001]”: the “Wells positive/evaluable [%]” value was found to be 0% and the “Donors positive/evaluable [%]” value was 0%.

Consider “YYKNIGLGF (listed as Homo sapiens) [RPS11-001]”, for which the “Wells positive/evaluable [%]” value is 3% and the “Donors positive/evaluable [%]” value is 17%.

In the case of “IYPDASLLI (listed as Homo sapiens) [CEA-010]”, the “Wells positive/evaluable [%]” value is given as 3% and the “Donors positive/evaluable [%]” value came to 40%.

For the sequence “TYGNLLDYL (listed as Homo sapiens) [ABL1-001]”, the “Wells positive/evaluable [%]” value stood at 18% and the “Donors positive/evaluable [%]” value stood at 83%.

Take “SYLELVKSL (listed as Homo sapiens) [SDHC-001]”: the “Wells positive/evaluable [%]” value is on record as 3% and the “Donors positive/evaluable [%]” value is 33%.

With “YYYVGFAYL (listed as Homo sapiens) [EIF'3L-001]”, the “Wells positive/evaluable [%]” value is on record as 29% and the “Donors positive/evaluable [%]” value was 100%.

As for “NYLPFIMEL (listed as Homo sapiens) [UCHL5-001]”, the “Wells positive/evaluable [%]” value is listed as 12% and the “Donors positive/evaluable [%]” value stood at 75%.

For the sequence “SYLQAANAL (listed as Homo sapiens) [COL6A3-001]”, the “Wells positive/evaluable [%]” value is recorded as 0% and the “Donors positive/evaluable [%]” value is listed as 0%.

Take “VWSDVTPLTF (listed as Homo sapiens) [MMP11-001]”: the “Wells positive/evaluable [%]” value is reported as 11% and the “Donors positive/evaluable [%]” value was 33%.

As to “VYKVVGNLL (listed as Homo sapiens) [IQGAP3-001]”, the “Wells positive/evaluable [%]” value was determined as 24% and the “Donors positive/evaluable [%]” value amounted to 100%.

Consider “RFLSGIINF (listed as Homo sapiens) [NUF2-002]”, for which the “Wells positive/evaluable [%]” value was determined as 6% and the “Donors positive/evaluable [%]” value came out at 50%.

For “LYQILQGIVF (listed as Homo sapiens) [CDC2-001]”, the “Wells positive/evaluable [%]” value was 28% and the “Donors positive/evaluable [%]” value was 83%.

With “VYFSKSEQL (listed as Homo sapiens) [EPHA2-005]”, the “Wells positive/evaluable [%]” value stood at 0% and the “Donors positive/evaluable [%]” value is reported as 0%.

For “VYNPTPNSL (listed as Homo sapiens) [COL12A1-001]”, the “Wells positive/evaluable [%]” value worked out at 0% and the “Donors positive/evaluable [%]” value is 0%.

“VYGIRLEHF (listed as Homo sapiens) [NUF2-001]”: the “Wells positive/evaluable [%]” value is on record as 50% and the “Donors positive/evaluable [%]” value is given as 100%.

“DYAYLREHF (listed as Homo sapiens) [ZNF598-001]”: the “Wells positive/evaluable [%]” value came to 17% and the “Donors positive/evaluable [%]” value is given as 83%.

As for “VYTTMAEHF (listed as Homo sapiens) [TSPAN1-002]”, the “Wells positive/evaluable [%]” value worked out at 1% and the “Donors positive/evaluable [%]” value came to 17%.

As for “LYPEVFEKF (listed as Homo sapiens) [ATAD2-003]”, the “Wells positive/evaluable [%]” value is reported as 0% and the “Donors positive/evaluable [%]” value is listed as 0%.

As to “RYLWATVTI (listed as Homo sapiens) [ASPM-001]”, the “Wells positive/evaluable [%]” value is 3% and the “Donors positive/evaluable [%]” value is 17%.

On to “VFDTAIAHLF (listed as Homo sapiens) [SIAH2-001]”, for which the “Wells positive/evaluable [%]” value is listed as 8% and the “Donors positive/evaluable [%]” value is 50%.

For “RYLPKGFLNQF (listed as Homo sapiens) [PTK2-001]”, the “Wells positive/evaluable [%]” value turned out to be 4% and the “Donors positive/evaluable [%]” value turned out to be 17%.

As for “KYLTVKDYL (listed as Homo sapiens) [ATAD2-002]”, the “Wells positive/evaluable [%]” value is reported as 1% and the “Donors positive/evaluable [%]” value was determined as 17%.

As for “HYKPTPLYF (listed as Homo sapiens) [SMC4-001]”, the “Wells positive/evaluable [%]” value is given as 10% and the “Donors positive/evaluable [%]” value was 73%.

As for “VYPNWAIGL (listed as Homo sapiens) [SLC6A6-001]”, the “Wells positive/evaluable [%]” value was 1% and the “Donors positive/evaluable [%]” value is recorded as 17%.

Turning to “RYLEGTSCI (listed as Homo sapiens) [EPPK1-001]”, the “Wells positive/evaluable [%]” value is reported as 1% and the “Donors positive/evaluable [%]” value turned out to be 17%.

Consider “KYNDTFWKEF (listed as Homo sapiens) [HSP90B1-001]”, for which the “Wells positive/evaluable [%]” value was determined as 7% and the “Donors positive/evaluable [%]” value was 50%.

For “FYQPKIQQF (listed as Homo sapiens) [FANCI-001]”, the “Wells positive/evaluable [%]” value is 1% and the “Donors positive/evaluable [%]” value was 17%.

As to “DYTIGFGKF (listed as Homo sapiens) [ITGB4-001]”, the “Wells positive/evaluable [%]” value worked out at 20% and the “Donors positive/evaluable [%]” value was found to be 67%.

With “IYNGKLFDLL (listed as Homo sapiens) [KIF2C-001]”, the “Wells positive/evaluable [%]” value was determined as 2% and the “Donors positive/evaluable [%]” value is 17%.

In the case of “QYIDKLNEL (listed as Homo sapiens) [CCDC88A-001]”, the “Wells positive/evaluable [%]” value came out at 0% and the “Donors positive/evaluable [%]” value stood at 0%.

Regarding “SYIIDPLNL (listed as Homo sapiens) [PROM1-001]”, the “Wells positive/evaluable [%]” value is on record as 26% and the “Donors positive/evaluable [%]” value was 83%.
